The source of these data is patent US12525646B2, “Ionic cyclic nitroxyl radical oligomers” (Wisconsin Alumni Research Foundation, priority 2021, dated 2026).

Assay type in all cases: physicochemical
The nature of series [1]: Permeability through AMVN anion-exchange membrane. The following applies: low ionic-conductivity AMVN membrane. The text has this: Crossover of the TEMPO species is critical to RFB lifetime as it lowers the catholyte capacity through material loss and the anolyte capacity through chemical/electrochemical side reactions.
Series [2] in a line: Viscosity of solutions versus volumetric capacity. The settings on record: compared with TMAP-TEMPO; reduced (uncharged) state. The text has this:
When determining the maximum cycling concentration with the water-miscible i-TEMPODs, the active molecule solubility no longer limits volumetric capacity as the interaction between the dissolved species and the water molecules are very thermodynamically favorable, and each TEMPO dimer is able to dissolve with a minimal amount of coordinated water. Instead, the cycling concentration will be limited by the electrolyte viscosity and its relation to pumping energy cost. The viscosity of representative TEMPO monomer and dimer solutions was experimentally measured at various volumetric capacities in their reduced (uncharged) states. FIG. 35A compares the viscosity of the i-TEMPODs to previously known TEMPO monomers, which are designated “OH”, “Nine”, and “TMAP”. Descriptions of these monomers can be found in: T. Liu, X. Wei, Z. Nie, V. Sprenkle, W. Wang, A Total Organic Aqueous Redox Flow Battery Employing a Low Cost and Sustainable Methyl Viologen Anolyte and 4-HO-TEMPO Catholyte. Adv. Energy Mater. 6 (2016); T. Janoschka, N. Martin, M. D. Hager, U. S. Schubert, An Aqueous Redox-Flow Battery with High Capacity and Power. The TEMPTMA/MV System. Angew. Chemie—Int. Ed. 55, 14427-14430 (2016); and Y. Liu, M. A. Goulet, L. Tong, Y. Liu, Y. Ji, L. Wu, R. G. Gordon, M. J. Aziz, Z. Yang, T. Xu, A Long-Lifetime All-Organic Aqueous Flow Battery Utilizing TMAP-TEMPO Radical. Chem. 5, 1861-1870 (2019). […]

A short description of series [3]: Electrochemical impedance spectroscopy (PEIS), Z-fitting to ideal Randle equivalent circuit. The settings on record: PEIS Z-fit.

With `CC1(C)CC([N+](C)(C)C2CC(C)(C)N([O])C(C)(C)C2)CC(C)(C)N1[O]` [i-TEMPOD-1], the “crossover with the AMVN membrane” value in series [1] was “no detectible crossover”. The “viscosity at a given volumetric capacity” value in series [2] was “nearly equal viscosity”. In series [3], the C1 is listed as 264.7 uF, the Rct was found to be 17.43 Ohm and the Ru was found to be 27.54 Ohm.
